GI50 and TGI data for 14 compounds are collected here from PubChem BioAssay (NCI).

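Cells were grown in 96-well plates and exposed to each compound for 48 hours at five concentrations; endpoints were interpolated linearly between bracketing concentrations, or set to the highest concentration if not reached. GI50 = concentration required for 50% inhibition of growth. At the TGI there is no net growth.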 Some results are limits rather than exact numbers.

Some test systems named below: CAKI-1 renal; HT29 colon; SNB-19 CNS; SK-MEL-2 melanoma; HL-60(TB) leukemia; A498 renal; SF-295 CNS; MCF7 breast; SF-268 CNS; TK-10 renal.
Test in all cases: growth of human tumour cells (NCI), 48 h

Consider `O=C1Cc2cc(CCN3CCNCC3)c(Cl)cc2N1`, for which the GI50 in the assay with CAKI-1 renal is 6.11 µM; with HT29 colon it was greater than 100 µM; in the assay on SNB-19 CNS it was 23.7 µM; in the assay on SK-MEL-2 melanoma, 15.2 µM; with HL-60(TB) leukemia it was 43 µM; in the assay with A498 renal, 2.85 µM. The results for the GI50 with SF-295 CNS, with MCF7 breast and with SF-268 CNS were 4.2 µM, 3.65 µM and 12.7 µM, respectively. Moreover, the TGI in the assay on CAKI-1 renal, in the assay with HT29 colon, in the assay on SNB-19 CNS, in the assay on SK-MEL-2 melanoma, in the assay on HL-60(TB) leukemia and in the assay on A498 renal was greater than 100 µM each time. Also, the TGI in the assay with SF-295 CNS, in the assay on MCF7 breast and in the assay with SF-268 CNS was greater than 100 µM each time.

As for `CCOCCOCCOCCOCCOCCOCCOCCOCCOCCO` (tested in a mixture with another compound), the GI50 in the assay with CAKI-1 renal is 1.42 µM; with HT29 colon it was 1.16 µM; in the assay on SK-MEL-2 melanoma, 1.2 µM; in the assay on HL-60(TB) leukemia it was 0.649 µM; in the assay with A498 renal it was 1.08 µM; in the assay on SF-295 CNS it was 0.869 µM. Moreover, the GI50 with MCF7 breast is 1.04 µM; in the assay with TK-10 renal, 1.53 µM; in the assay on SF-268 CNS, 1.61 µM. The TGI in the assay with CAKI-1 renal was found to be 18.9 µM; in the assay on HT29 colon, 4.36 µM; in the assay with SK-MEL-2 melanoma, 3.81 µM; in the assay on HL-60(TB) leukemia, 1.59 µM; in the assay with A498 renal it was 19.1 µM; with SF-295 CNS, 4.12 µM. Besides, the results for the TGI with MCF7 breast, in the assay with TK-10 renal and in the assay with SF-268 CNS were 4.58 µM, 12.2 µM and 20.8 µM, respectively.

Take `CC1=C(C(=O)Nc2ccc(Cl)c(Cl)c2)C(c2cccc(Cl)c2)NC(=S)N1` (centres undefined): the GI50 with CAKI-1 renal is 14.2 µM; with HT29 colon it was 16.1 µM; with SNB-19 CNS it was 10.5 µM; in the assay on SK-MEL-2 melanoma, 14.5 µM; in the assay on HL-60(TB) leukemia, 16.5 µM; in the assay on SF-295 CNS it was 17.4 µM. The GI50 was greater than 50 µM in the assay with MCF7 breast, 17.7 µM in the assay with TK-10 renal and 16.5 µM in the assay on SF-268 CNS. In addition, the TGI is greater than 50 µM in the assay with CAKI-1 renal; greater than 50 µM in the assay with HT29 colon; 24.9 µM in the assay on SNB-19 CNS; 27.1 µM with SK-MEL-2 melanoma; 45.5 µM with HL-60(TB) leukemia; greater than 50 µM in the assay on SF-295 CNS. Further, the figures for the TGI in the assay with MCF7 breast, in the assay with TK-10 renal and in the assay on SF-268 CNS were greater than 50 µM, greater than 50 µM and 41.8 µM, respectively.

Turning to `CCc1c(C)c2cc(-n3c(-c4ccc(OC)cc4)csc3=N)c(O)c(C)c2oc1=O`, the GI50 in the assay on HT29 colon is 1.74 µM; in the assay with SNB-19 CNS, 2.36 µM; with SK-MEL-2 melanoma, 1.66 µM; in the assay with A498 renal, 1.94 µM; with SF-295 CNS, 1.52 µM; with MCF7 breast it was 0.82 µM. For the same compound, the GI50 in the assay with TK-10 renal is 4.36 µM; in the assay on SF-268 CNS it was 2.1 µM. For the same compound, the TGI in the assay on HT29 colon was 6.12 µM; with SNB-19 CNS, 8.86 µM; in the assay on SK-MEL-2 melanoma, 5.84 µM; with A498 renal it was 8.72 µM; with SF-295 CNS it was 10.3 µM; in the assay on MCF7 breast, 3.07 µM. Moreover, the TGI in the assay on TK-10 renal stood at 8.35 µM; in the assay with SF-268 CNS, 10.3 µM.

Turning to `O=C1C=CC(=O)c2c1nc(CBr)[nH]c2=O`, the TGI in the assay with CAKI-1 renal is greater than 100 µM; in the assay on HT29 colon it was greater than 100 µM; in the assay on SK-MEL-2 melanoma, greater than 100 µM; in the assay with HL-60(TB) leukemia, 55 µM; with A498 renal, greater than 100 µM; with SF-295 CNS, greater than 100 µM. In addition, the TGI in the assay with MCF7 breast and with SF-268 CNS was greater than 100 µM in each case.

In the case of `CCC(c1ccccc1)c1cc(C(C)(C)C)cc(C(C)(C)C)c1O` (centres undefined), the TGI with CAKI-1 renal was 29.8 µM; with HT29 colon, 28 µM; in the assay on SNB-19 CNS, 32.7 µM; with SK-MEL-2 melanoma it was 29 µM; in the assay on A498 renal, 33.9 µM; with SF-295 CNS it was 26.9 µM. The TGI with MCF7 breast was determined as 35.7 µM; in the assay with TK-10 renal it was 28.8 µM; with SF-268 CNS it was 28.9 µM.

Consider `COc1ccc2c(c1)-c1c(c3cc(OC)ccc3n(CCN(C)C)c1=O)C2=O`, for which the GI50 was 1.77 µM in the assay on CAKI-1 renal; 0.24 µM in the assay on HT29 colon; 0.812 µM with SNB-19 CNS; 1.38 µM with HL-60(TB) leukemia; 1.36 µM with A498 renal; 0.714 µM with SF-295 CNS. Also, the GI50 in the assay with MCF7 breast was 0.221 µM; in the assay with TK-10 renal, 1.65 µM; in the assay with SF-268 CNS, 0.362 µM. For the same compound, the TGI with CAKI-1 renal is 18.8 µM; in the assay on HT29 colon, 1.2 µM; in the assay with SNB-19 CNS, 7.18 µM; in the assay with HL-60(TB) leukemia it was 5.97 µM; with A498 renal, 6.48 µM; in the assay with SF-295 CNS, 2.99 µM. In addition, the TGI with MCF7 breast is 5.3 µM; in the assay on TK-10 renal, 6.98 µM; with SF-268 CNS it was 6.21 µM.

Regarding `CC12O[C@H](C[C@@H](OC(=O)CCC(=O)O)[C@H]1O)n1c3ccccc3c3c4c(c5c6ccccc6n2c5c31)C(=O)NC4=O`, the GI50 in the assay on HT29 colon was 1.45 µM; in the assay with SNB-19 CNS, 3.62 µM; in the assay on SK-MEL-2 melanoma, 0.464 µM; in the assay with HL-60(TB) leukemia, 9.62 µM; in the assay on A498 renal, 0.168 µM; in the assay on SF-295 CNS, 1.5 µM. Besides, the GI50 with MCF7 breast is 1.25 µM; in the assay with TK-10 renal, 0.411 µM; in the assay on SF-268 CNS it was 3.21 µM. Besides, the TGI with HT29 colon amounted to 17.7 µM; in the assay on SNB-19 CNS it was 38.8 µM; with SK-MEL-2 melanoma, 16.5 µM; in the assay on HL-60(TB) leukemia it was 42.4 µM; in the assay on A498 renal, 1.15 µM; in the assay with SF-295 CNS, 7.6 µM. The figures for the TGI in the assay with MCF7 breast, in the assay on TK-10 renal and in the assay on SF-268 CNS were 10.9 µM, 10.9 µM and 23.9 µM, respectively.

In the case of `Cc1c(-c2ccccn2)ccc2ccccc12`, the TGI in the assay on CAKI-1 renal, in the assay with HT29 colon, in the assay with SNB-19 CNS, in the assay with HL-60(TB) leukemia, in the assay on A498 renal and in the assay on SF-295 CNS was greater than 100 µM each time. Further, the TGI with MCF7 breast, in the assay on TK-10 renal and in the assay on SF-268 CNS was greater than 100 µM each time.

As for `O=C(Oc1c(Cl)cc(Cl)cc1Cl)c1ccccc1Nc1ccnc(C(F)(F)F)c1`, the GI50 in the assay on CAKI-1 renal is 7.12 µM; in the assay with HT29 colon, 4.59 µM; in the assay with SNB-19 CNS, 7.07 µM; in the assay with SK-MEL-2 melanoma, 31.1 µM; with HL-60(TB) leukemia it was 3.97 µM; in the assay with SF-295 CNS it was 4.16 µM. Further, the results for the GI50 with MCF7 breast, in the assay on TK-10 renal and in the assay with SF-268 CNS were 4.68 µM, 3.41 µM and 3.92 µM, respectively. The TGI with CAKI-1 renal, in the assay on HT29 colon, in the assay on SNB-19 CNS, in the assay on SK-MEL-2 melanoma, with HL-60(TB) leukemia and in the assay on SF-295 CNS was greater than 100 µM throughout. For the same compound, the TGI with MCF7 breast was greater than 100 µM; in the assay with TK-10 renal it was 28.4 µM; in the assay with SF-268 CNS it was greater than 100 µM.

Regarding `COc1ccc(-c2c(-c3ccc(C#N)c(F)c3)nc(N3CCC(N)CC3)n(C)c2=O)cc1F`, the GI50 is 13.8 µM in the assay on CAKI-1 renal; 10.4 µM in the assay with HT29 colon; 31.6 µM in the assay with SNB-19 CNS; 18.5 µM in the assay on SK-MEL-2 melanoma; 10.8 µM in the assay with HL-60(TB) leukemia; 15.4 µM with SF-295 CNS. Moreover, the GI50 was 14.4 µM in the assay with MCF7 breast, 12.8 µM in the assay on TK-10 renal and 20.4 µM in the assay on SF-268 CNS. The TGI was 30.6 µM in the assay with CAKI-1 renal; 30.2 µM in the assay with HT29 colon; greater than 100 µM in the assay on SNB-19 CNS; 38.6 µM in the assay on SK-MEL-2 melanoma; 29.1 µM in the assay on HL-60(TB) leukemia; 31.9 µM in the assay with SF-295 CNS. For the same compound, the TGI in the assay on MCF7 breast is 34 µM; in the assay with TK-10 renal it was 32.4 µM; in the assay with SF-268 CNS it was 87 µM.

Take `Cc1cc(N(CCNc2ccnc3cc(Cl)ccc23)Cc2ccc3c(c2)OCO3)nc(N2CCCC2)n1`: the GI50 in the assay with HT29 colon was 0.706 µM; with SNB-19 CNS, 2.53 µM; in the assay on SK-MEL-2 melanoma, 1.82 µM; in the assay with HL-60(TB) leukemia it was 1.95 µM; in the assay on A498 renal it was 1.61 µM; in the assay on SF-295 CNS, 1.34 µM. Besides, the GI50 was 1.49 µM in the assay on MCF7 breast, 1.74 µM with TK-10 renal and 2.2 µM in the assay on SF-268 CNS. The TGI was determined as 3.66 µM with HT29 colon; 11.3 µM in the assay on SNB-19 CNS; 3.62 µM in the assay on SK-MEL-2 melanoma; 4.06 µM with HL-60(TB) leukemia; 3.94 µM in the assay on A498 renal; 2.88 µM with SF-295 CNS. The results for the TGI with MCF7 breast, in the assay on TK-10 renal and with SF-268 CNS were 4.19 µM, 3.8 µM and 7.16 µM, respectively.

As to `CSc1ccc(C(=O)/C=C/c2ccc(Cl)cc2Cl)cc1`, the GI50 was 33.4 µM in the assay on CAKI-1 renal; 17.6 µM in the assay with SK-MEL-2 melanoma; 18.4 µM in the assay on HL-60(TB) leukemia; 20.3 µM in the assay on A498 renal; 29.5 µM with SF-295 CNS; 3.68 µM in the assay with MCF7 breast. The values for the GI50 in the assay on TK-10 renal and with SF-268 CNS were 20.9 µM and 20.8 µM, respectively. The TGI in the assay on CAKI-1 renal is 92 µM; in the assay on SK-MEL-2 melanoma, 59.3 µM; with HL-60(TB) leukemia it was 38.2 µM; in the assay with A498 renal, 51.3 µM; in the assay with SF-295 CNS it was greater than 100 µM; in the assay with MCF7 breast, 19.8 µM. Moreover, the results for the TGI with TK-10 renal and with SF-268 CNS were 52.9 µM and 48.9 µM, respectively.

On to `O=C1C(Cl)=C(NCCCN(CCCNC2=C(Cl)C(=O)c3ccccc3C2=O)C2=C(Cl)C(=O)c3ccccc3C2=O)C(=O)c2ccccc21`, for which the GI50 with SNB-19 CNS is 3.79 µM; with A498 renal, 19.6 µM; in the assay on SF-295 CNS it was 3.07 µM; in the assay on MCF7 breast it was 1.48 µM; in the assay on TK-10 renal, 17.9 µM; with SF-268 CNS, 2.76 µM. Besides, the TGI was 18.9 µM in the assay on SNB-19 CNS; 39.4 µM with A498 renal; 14.7 µM in the assay on SF-295 CNS; 3.89 µM in the assay with MCF7 breast; 36.9 µM with TK-10 renal; 18.8 µM in the assay on SF-268 CNS.
